The values that follow come from patent publication US20260007758A1, “SO[…]-2 RECEPTOR (SST2R) NON-PEPTIDE DRUG CONJUGATES AND USES THEREOF” (Crinetics Pharmaceuticals, Inc., priority 2024, published 2026).

Common to all, as to assay type: cell-based
For one experiment, the target named is T1, SST2 (Homo sapiens, UniProt P30874).
T1 construct: host or cells: PathHunter CHO-K1 SST2 cells
As to the kind of experiment: PathHunter CHO-K1 SST2 Internalization Assay. The note with it: PathHunter CHO-K1 SST2 cells; 90 min at 37 C; luminescence; read-out: Internalization EC50. A digest of the protocol:
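CHO-K1 cells expressing human SST2, 2500 cells/well, grown 48 h, then exposed 90 min at 37 C to 11-point 1:3 NDC dilutions (final top 10 uM). Beta-Glo luminescence after 60 min at room temperature; four-parameter IC50, duplicate mean, background-corrected.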

Experiment [1] deals with NCI-H524 human small cell lung cancer cells. As to the kind of experiment: H524 assay: inhibition of cell proliferation (CellTiter Glo). The note with it: 2 h treatment, washout, additional 70 h incubation. A digest of the protocol:
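NCI-H524 cells were exposed for 2 h to NDC in an 11-point two-fold series starting at 1 uM. The drug was then washed out and cells grew a further 70 h. CellTiter Glo luminescence gave % inhibition versus untreated control, and IC50 came from a four-parameter nonlinear regression.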
For orientation: In ATP-based viability assays light output follows the ATP content of the culture.

Experiment [2] deals with T2, human somatostatin receptor subtype 2 (Homo sapiens, UniProt P30874).
T2 construct: expressed in transfected cells
As to the kind of experiment: Functional assay for SSTR2 agonists (HTRF cAMP). The settings on record: CHO-K1 cells stably expressing human SST2; NKH477-stimulated cAMP; 20 min at 37 C; read-out: hSST2 cAMP Avg EC50. A digest of the protocol:
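CHO-K1 cells stably expressing human SSTR2 treated with compound (typically 0-10,000 nM final) for 20 min at 37 °C. Lysate cAMP measured by HTRF (665/620 nm ratio), converted via standard curve; EC50 from cAMP vs concentration.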
In general terms: Time-resolved FRET reads energy transfer from a long-lived donor to a nearby acceptor.

T1 sequence (P30874 whole entry): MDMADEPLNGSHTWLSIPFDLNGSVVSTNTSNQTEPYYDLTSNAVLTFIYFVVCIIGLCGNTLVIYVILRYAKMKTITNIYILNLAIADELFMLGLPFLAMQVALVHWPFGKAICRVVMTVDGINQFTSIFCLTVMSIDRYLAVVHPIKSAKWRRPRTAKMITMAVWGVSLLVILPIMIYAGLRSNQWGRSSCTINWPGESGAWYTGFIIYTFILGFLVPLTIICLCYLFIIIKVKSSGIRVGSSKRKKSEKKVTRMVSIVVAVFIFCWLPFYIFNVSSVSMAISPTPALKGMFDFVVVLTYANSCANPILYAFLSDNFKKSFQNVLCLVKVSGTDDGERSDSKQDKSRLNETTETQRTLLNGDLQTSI
T2 sequence (P30874 whole entry): as above

For `CC[C@H](C)[C@@H]([C@@H](CC(=O)N1CCC[C@H]1[C@H](OC)[C@@H](C)C(=O)N[C@H](C)[C@@H](O)c1ccccc1)OC)N(C)C(=O)[C@@H](NC(=O)C(C(C)C)N(C)C(=O)OCc1ccc(NC(=O)[C@H](CCCNC(N)=O)NC(=O)[C@@H](NC(=O)CCOCCC(=O)NCCNc2ncc(-c3cc(C)cc(F)c3)c(N3CCC(N)CC3)c2-c2nc3ccc(Cl)cc3[nH]2)C(C)C)c(O[C@@H]2O[C@H](C(=O)N3CCN(C)CC3)[C@@H](O)[C@H](O)[C@H]2O)c1)C(C)C` (stereo partly drawn) [Compound 226], the values for the EC50 (on SST2; in experiment [1]; in experiment [2]) were 9.3 nM, 4.3 nM and 0.28 nM, respectively.

As to `CC[C@H](C)[C@@H]([C@@H](CC(=O)N1CCC[C@H]1[C@H](OC)[C@@H](C)C(=O)N[C@H](C)[C@@H](O)c1ccccc1)OC)N(C)C(=O)[C@@H](NC(=O)[C@H](C(C)C)N(C)C(=O)OCc1ccc(NC(=O)[C@H](CCCNC(N)=O)NC(=O)[C@@H](NC(=O)CCCCCCCCNc2ncc(-c3cc(C)cc(F)c3)c(N3CCC(N)CC3)c2-c2nc3ccc(Cl)cc3[nH]2)C(C)C)c(O[C@@H]2O[C@H](C(=O)NCC(=O)O)[C@@H](O)[C@H](O)[C@H]2O)c1)C(C)C` [Compound 193], the results for the EC50 (at SST2; in experiment [1]; in experiment [2]) were 3.8 nM, 32 nM and 0.87 nM, respectively.

As to `CC[C@H](C)[C@@H]([C@@H](CC(=O)N1CCC[C@H]1[C@H](OC)[C@@H](C)C(=O)N[C@H](C)[C@@H](O)c1ccccc1)OC)N(C)C(=O)[C@@H](NC(=O)[C@H](C(C)C)N(C)C(=O)OCc1ccc(NC(=O)[C@H](CCCNC(N)=O)NC(=O)[C@@H](NC(=O)c2cc(NCCOCCC(=O)NCCNc3ncc(-c4cc(C)cc(F)c4)c(N4CCC(N)CC4)c3-c3nc4ccc(Cl)cc4[nH]3)cc(C(=O)NCC(N)=O)c2)C(C)C)cc1)C(C)C` [Compound 186], the values for the EC50 (on SST2; in experiment [1]; in experiment [2]) were 2.7 nM, 470 nM and 0.26 nM, respectively.

In the case of `CC[C@H](C)[C@@H]([C@@H](CC(=O)N1CCC[C@H]1[C@H](OC)[C@@H](C)C(=O)N[C@H](C)[C@@H](O)c1ccccc1)OC)N(C)C(=O)[C@@H](NC(=O)[C@H](C(C)C)N(C)C(=O)OCc1ccc(NC(=O)[C@H](CCCNC(N)=O)NC(=O)[C@@H](NC(=O)CCOCCC(=O)N(C)CC(=O)NCCNc2ncc(-c3cc(C)cc(F)c3)c(N3CCC(N)CC3)c2-c2nc3ccc(Cl)cc3[nH]2)C(C)C)c(O)c1)C(C)C` [Compound 199], the EC50 (commonly the midpoint of the concentration-response curve) at SST2 is 4.1 nM; in experiment [1], 8.9 nM; in experiment [2] it was 0.071 nM.

Turning to `CC[C@H](C)[C@@H]([C@@H](CC(=O)N1CCC[C@H]1[C@H](OC)[C@@H](C)C(=O)N[C@H](C)[C@@H](O)c1ccccc1)OC)N(C)C(=O)[C@@H](NC(=O)[C@H](C(C)C)N(C)C(=O)OCc1ccc(NC(=O)[C@H](CCCNC(N)=O)NC(=O)[C@@H](NC(=O)CCOCCC(=O)NCCNc2ncc(-c3cc(C)cc(F)c3)c(N3CCC(N)CC3)c2-c2cc3ccc(Cl)cc3[nH]2)C(C)C)c(O[C@@H]2C[C@H](C(=O)NCCN)[C@@H](O)[C@H](O)[C@H]2O)c1)C(C)C` [Compound 43], the EC50 at SST2 is 6.6 nM; in experiment [1], 1.8 nM; in experiment [2], 0.24 nM.

Take `CC[C@H](C)[C@@H]([C@@H](CC(=O)N1CCC[C@H]1[C@H](OC)[C@@H](C)C(=O)N[C@H](C)[C@@H](O)c1ccccc1)OC)N(C)C(=O)[C@@H](NC(=O)[C@H](C(C)C)N(C)C(=O)OCc1ccc(NC(=O)[C@H](CCCNC(N)=O)NC(=O)[C@@H](NC(=O)CCOCCC(=O)N(C)CC(=O)NCCNc2ncc(-c3cc(C)cc(F)c3)c(N3CCC(N)CC3)c2-c2nc3ccc(Cl)cc3[nH]2)C(C)C)c(O[C@@H]2O[C@H](C(=O)NCCN(C)C)[C@@H](O)[C@H](O)[C@H]2O)c1)C(C)C` [Compound 215]: the EC50 on SST2 came out at 7.8 nM; in experiment [1], 5 nM; in experiment [2], 0.14 nM.

As to `CC[C@H](C)[C@@H]([C@@H](CC(=O)N1CCC[C@H]1[C@H](OC)[C@@H](C)C(=O)N[C@H](C)[C@@H](O)c1ccccc1)OC)N(C)C(=O)[C@@H](NC(=O)[C@H](C(C)C)N(C)C(=O)OCc1ccc(NC(=O)[C@H](CCCNC(N)=O)NC(=O)[C@@H](NC(=O)CCOCCC(=O)NCCNc2ncc(-c3cc(C)cc(F)c3)c(N3CCC(N)CC3)c2-c2nc3ccc(Cl)cc3[nH]2)C(C)C)c(O[C@@H]2O[C@H](C(=O)N(C)CCS(=O)(=O)O)[C@@H](O)[C@H](O)[C@H]2O)c1)C(C)C` [Compound 218], the EC50 was 2.8 nM on SST2, 7 nM in experiment [1] and 0.07 nM in experiment [2].

Turning to `CC[C@H](C)[C@@H]([C@@H](CC(=O)N1CCC[C@H]1[C@H](OC)[C@@H](C)C(=O)N[C@H](C)[C@@H](O)c1ccccc1)OC)N(C)C(=O)[C@@H](NC(=O)[C@H](C(C)C)N(C)C(=O)OCc1ccc(NC(=O)[C@H](CCCNC(N)=O)NC(=O)[C@@H](NC(=O)[C@H](CCC(=O)O)NC(=O)CCOCCC(=O)NCCNc2ncc(-c3cc(C)cc(F)c3)c(N3CCC(N)CC3)c2-c2nc3ccc(Cl)cc3[nH]2)C(C)C)c(OC)c1)C(C)C` [Compound 16], the EC50 was 7.8 nM on SST2, 160 nM in experiment [1] and 0.083 nM in experiment [2].

With `CC[C@H](C)[C@@H]([C@@H](CC(=O)N1CCC[C@H]1[C@H](OC)[C@@H](C)C(=O)N[C@H](C)[C@@H](O)c1ccccc1)OC)N(C)C(=O)[C@@H](NC(=O)[C@H](C(C)C)N(C)C(=O)OCc1ccc(NC(=O)[C@H](CCCNC(N)=O)NC(=O)[C@@H](NC(=O)[C@H](CCC(=O)O)NC(=O)CCOCCC(=O)NCCNc2ncc(-c3cc(C)cc(F)c3)c(N3CCC(N)CC3)c2-c2nc3ccc(Cl)cc3[nH]2)C(C)C)cc1C(=O)N1CC(N)C1)C(C)C` [Compound 91], the results for the EC50 (at SST2; in experiment [1]; in experiment [2]) were 2.5 nM, 1000 nM and 0.46 nM, respectively.

Turning to `CC[C@H](C)[C@@H]([C@@H](CC(=O)N1CCC[C@H]1[C@H](OC)[C@@H](C)C(=O)N[C@H](C)[C@@H](O)c1ccccc1)OC)N(C)C(=O)[C@@H](NC(=O)[C@H](C(C)C)N(C)C(=O)OCc1ccc(NC(=O)[C@H](CCCNC(N)=O)NC(=O)[C@@H](NC(=O)c2cc(NC(=O)CCOCCC(=O)N(C)CC(=O)NCCNc3ncc(-c4cc(C)cc(F)c4)c(N4CCC(N)CC4)c3-c3nc4ccc(Cl)cc4[nH]3)cc(C(=O)NC[C@@H](O)C(=O)O)c2)C(C)C)cc1)C(C)C` [Compound 244], the EC50 was determined as 4 nM at SST2, 55 nM in experiment [1] and 0.26 nM in experiment [2].

With `CC[C@H](C)[C@@H]([C@@H](CC(=O)N1CCC[C@H]1[C@H](OC)[C@@H](C)C(=O)N[C@H](C)[C@@H](O)c1ccccc1)OC)N(C)C(=O)[C@@H](NC(=O)[C@H](C(C)C)N(C)C(=O)OCc1ccc(NC(=O)[C@H](CCCNC(N)=O)NC(=O)[C@@H](NC(=O)CCOCCC(=O)NCCNc2ncc(-c3cc(C)cc(F)c3)c(N3CCC(N)CC3)c2-c2nc3ccc(Cl)cc3[nH]2)C(C)C)c(C)c1)C(C)C` [Compound 9], the EC50 at SST2 is 2.5 nM; in experiment [1], 4.3 nM; in experiment [2], 0.38 nM.

Regarding `CC[C@H](C)[C@@H]([C@@H](CC(=O)N1CCC[C@H]1[C@H](OC)[C@@H](C)C(=O)N[C@H](C)[C@@H](O)c1ccccc1)OC)N(C)C(=O)[C@@H](NC(=O)C(C(C)C)N(C)C(=O)OCc1ccc(NC(=O)[C@H](CCCNC(N)=O)NC(=O)[C@@H](NC(=O)CCOCCC(=O)NCCNc2ncc(-c3cc(C)cc(F)c3)c(N3CCC(N)CC3)c2-c2nc3ccc(Cl)cc3[nH]2)C(C)C)c(O[C@@H]2O[C@H](C(=O)N3CCN(CCO)CC3)[C@@H](O)[C@H](O)[C@H]2O)c1)C(C)C` (stereo partly drawn) [Compound 229], the EC50 at SST2 worked out at 4.8 nM; in experiment [1] it was 4 nM; in experiment [2], 0.1 nM.

As to `CC[C@H](C)[C@@H]([C@@H](CC(=O)N1CCC[C@H]1[C@H](OC)[C@@H](C)C(=O)N[C@H](C)[C@@H](O)c1ccccc1)OC)N(C)C(=O)[C@@H](NC(=O)[C@H](C(C)C)N(C)C(=O)OCc1ccc(NC(=O)[C@H](CCCNC(N)=O)NC(=O)[C@@H](NC(=O)CN(C)C(=O)CCOCCC(=O)NCCNc2ncc(-c3cc(C)cc(F)c3)c(N3CCC(N)CC3)c2-c2nc3ccc(Cl)cc3[nH]2)C(C)C)c(O[C@@H]2O[C@H](C(=O)O)[C@@H](O)[C@H](O)[C@H]2O)c1)C(C)C` [Compound 118], the EC50 on SST2 turned out to be 9.3 nM; in experiment [1], 22 nM; in experiment [2], 0.24 nM.

As to `CC[C@H](C)[C@@H]([C@@H](CC(=O)N1CCC[C@H]1[C@H](OC)[C@@H](C)C(=O)N[C@H](C)[C@@H](O)c1ccccc1)OC)N(C)C(=O)[C@@H](NC(=O)[C@H](C(C)C)N(C)C(=O)OCc1ccc(NC(=O)[C@H](C)NC(=O)[C@@H](NC(=O)CCOCCC(=O)NCCNc2ncc(-c3cncc(C)c3)c(N3CCC(N)CC3)c2-c2nc3ccc(Cl)cc3[nH]2)C(C)C)c(O[C@@H]2O[C@H](C(=O)O)[C@@H](O)[C@H](O)[C@H]2O)c1)C(C)C` [Compound 129], the EC50 amounted to 960 nM at SST2, 3000 nM in experiment [1] and 190 nM in experiment [2].

Take `CC[C@H](C)[C@@H]([C@@H](CC(=O)N1CCC[C@H]1[C@H](OC)[C@@H](C)C(=O)N[C@H](C)[C@@H](O)c1ccccc1)OC)N(C)C(=O)[C@@H](NC(=O)[C@H](C(C)C)N(C)C(=O)OCc1ccc(NC(=O)[C@H](CCCNC(N)=O)NC(=O)[C@@H](NC(=O)[C@H](CCCO)NC(=O)CCOCCC(=O)NCCNc2ncc(-c3cc(C)cc(F)c3)c(N3CCC(N)CC3)c2-c2nc3cc(Cl)ccc3[nH]2)C(C)C)c(O[C@@H]2O[C@H](C(=O)NCC(=O)O)[C@@H](O)[C@H](O)[C@H]2O)c1)C(C)C` [Compound 213]: the values for the EC50 (on SST2; in experiment [1]; in experiment [2]) were 3.4 nM, 9.2 nM and 0.089 nM, respectively.
